What was measured:
FRAP1/mTOR = FRAP1/mTOR (Homo sapiens (Human), UniProt P42345); test: Test 2: mTOR Biochemical Assay (FRAP1/mTOR TR-FRET tracer assay); type: binding; conditions: mTOR Kinase Tracer 314
H4 mCherry-GFP-LC3 cells = test: Test 4: Autophagy Assay (mCherry-GFP-LC3 reporter, high-content imaging); type: cell-based; conditions: Homo sapiens, Table 1, mCherry-positive LC3 puncta/cell, 16-18 h
Excerpt: Autophagy is a catabolic pathway that degrades bulk cytosol in lysosomal compartments enabling amino acids and fatty acids to be recycled. […] To quantify autophagy induction by mTOR inhibitors, we use a mCherry-GFP-LC3 reporter which is amenable to retroviral delivery into mammalian cells, stable expression and analysis by fluorescence microscopy.
Described hereinafter is an imaging protocol and image recognition algorithm to visualize and measure changes in the autophagic pathway.
Quantification of Autophagy Using High-Content Imaging and Analysis
• 1. Day 0: Cell plating. Subconfluent H4 mCherry-GFP-LC3 cells are harvested by trypsinization, resuspended in growth medium, and counted (H4 cells: Human neuroglioma cell line (ATCC)). A cell suspension of 66′000 cells/mL is prepared and 30 μL are added into the wells of a 384-well plate using an electronic multichannel pipette. […] The cell plates are briefly spun down and placed at 37° C. and 5% CO2. • 2. Day 1: Compound treatment. Compound dose responses are prepared in DMSO. The dose responses are then diluted 1:50 in medium. 10 ul of the diluted compound is added to 30 ul of cells, yielding a final 1:200 dilution of the original compound and final of 0.5% DMSO. Compound-treatments are performed in triplicates. The 384-well plates are placed at 37° C. and 5% CO2. Compound treatment is performed for 16-18 h (see Note 1). • 3. Day 2: Cell fixation. Cells are fixed by adding 10 μL/well 5× concentrated Mirsky's fixative supplemented with 25 μg/mL Hoechst33342. […] The 384-well plate is briefly spun down and incubated for 1 h at room temperature. Cells are then washed using a 384-well plate washer using a protocol which aspirates the volume down to 10 μL/well before dispensing 100 μL/well 1×TBS. Aspiration and dispensing steps are repeated 4 times and a final volume of 100 μL/well is left. The plate is sealed using an adhesive PCR foil. • 4. Imaging. The bottom of the plate is cleaned with 70% ethanol and then imaged using the InCell 1000 automated epifluorescence microscope. 20× magnification is used and 4 different areas (fields) are imaged per well, this typically captures a total of around 400 cells per well. Hoechst33342 images are acquired using an excitation of 360 nm (D360—40× filter), an emission of 460 nm (HQ460—40M filter) and an exposure time of 150 ms. GFP images are acquired using an excitation of 475 nm (S47520× filter), an emission of 535 nm (HQ535—50M filter) and an exposure time of 1 s. mCherry images are acquired using an excitation of 535 nm (HQ535—50× filter), an emission of 620 nm (HQ620—60M filter) and an exposure time of 1 s. A quadruple band pass mirror is used for all images. • 5. Image analysis. The InCell Analysis software is used to analyze the images using the Multi Target Analysis algorithm. First, nuclei are detected in the Hoechst33342 image using top-hat segmentation and a minimal nuclear area of 50 μm^2. Cells are defined using a collar of 10 μm around the nuclei. Second, puncta (organelles) are identified in the mCherry image inside the cells using multi-top-hat segmentation. Third, the mask of the mCherry puncta is transferred onto the GFP image. Fourth, the GFP fluorescence intensity inside the mCherry puncta mask is measured (reference intensity). • 6. The ‘organelles’ parameter reflects mCherry-positive puncta of the mCherry-GFP-LC3 reporter and is used to calculate ‘LC3 puncta/cell’. For this purpose, the number of organelles is calculated per cell and averaged over all the cells in a given well (average per cell basis). mCherry-positive LC3 puncta numbers (y-axis) are plotted against the compound dose response values (x-axis) and EC50 values are calculated for each compound. EC50 values represent compound potency in terms of autophagy activation (e.g. increase in mCherry-positive LC3 puncta count). Notes • 1. Autophagy-modulation and redistribution of mCherry-GFP-LC3 can be already observed after a compound treatment time of 3-4 h. […]

[1] = tested on: constitutively active mTOR; test: Test 3: TSC Assay (high content imaging of phospho-S6 (240/244) in TSC1−/− MEFs); type: cell-based; conditions: Mus musculus, pS6 240/244 staining, 2 hrs compound treatment
PI3Kα = PI3Kα (Homo sapiens (Human), UniProt P42336); test: Test 1: PI3 Kinase Assay (PI3K KinaseGlo assay); type: biochemical; conditions: 1 μM ATP
Sequence of PI3Kα (P42336 other isoform, or with tags, fused parts or gaps): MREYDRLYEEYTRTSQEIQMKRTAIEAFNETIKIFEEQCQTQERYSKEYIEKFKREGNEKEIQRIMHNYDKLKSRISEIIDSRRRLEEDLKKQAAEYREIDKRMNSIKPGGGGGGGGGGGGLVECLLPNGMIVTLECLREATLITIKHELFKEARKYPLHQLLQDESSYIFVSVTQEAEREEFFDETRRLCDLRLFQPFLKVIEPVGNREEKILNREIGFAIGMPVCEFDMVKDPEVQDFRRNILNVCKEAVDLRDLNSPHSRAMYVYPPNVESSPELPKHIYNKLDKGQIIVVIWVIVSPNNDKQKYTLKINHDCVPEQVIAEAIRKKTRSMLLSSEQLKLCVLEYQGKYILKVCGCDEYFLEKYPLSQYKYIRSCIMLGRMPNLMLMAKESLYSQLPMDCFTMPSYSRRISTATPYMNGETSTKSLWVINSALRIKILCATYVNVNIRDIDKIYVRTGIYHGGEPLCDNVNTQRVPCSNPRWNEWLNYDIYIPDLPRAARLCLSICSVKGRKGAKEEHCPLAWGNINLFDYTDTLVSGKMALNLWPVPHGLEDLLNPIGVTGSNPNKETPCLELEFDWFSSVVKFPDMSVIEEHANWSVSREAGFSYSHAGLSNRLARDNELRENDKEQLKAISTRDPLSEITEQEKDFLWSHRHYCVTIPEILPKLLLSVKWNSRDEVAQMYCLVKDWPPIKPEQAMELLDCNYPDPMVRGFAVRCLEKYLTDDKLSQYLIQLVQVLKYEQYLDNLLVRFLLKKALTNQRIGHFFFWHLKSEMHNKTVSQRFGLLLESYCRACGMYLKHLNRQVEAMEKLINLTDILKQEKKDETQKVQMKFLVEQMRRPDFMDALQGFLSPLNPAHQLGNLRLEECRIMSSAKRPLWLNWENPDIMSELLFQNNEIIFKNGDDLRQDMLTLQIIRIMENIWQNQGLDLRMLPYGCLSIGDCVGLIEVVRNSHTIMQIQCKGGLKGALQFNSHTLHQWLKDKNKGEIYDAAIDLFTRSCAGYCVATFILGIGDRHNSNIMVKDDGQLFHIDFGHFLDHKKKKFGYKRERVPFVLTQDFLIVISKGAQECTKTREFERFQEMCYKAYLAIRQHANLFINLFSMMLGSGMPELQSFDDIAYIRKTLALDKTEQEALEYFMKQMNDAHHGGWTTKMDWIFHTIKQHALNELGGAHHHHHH

Sequence of FRAP1/mTOR (P42345 1360-2549): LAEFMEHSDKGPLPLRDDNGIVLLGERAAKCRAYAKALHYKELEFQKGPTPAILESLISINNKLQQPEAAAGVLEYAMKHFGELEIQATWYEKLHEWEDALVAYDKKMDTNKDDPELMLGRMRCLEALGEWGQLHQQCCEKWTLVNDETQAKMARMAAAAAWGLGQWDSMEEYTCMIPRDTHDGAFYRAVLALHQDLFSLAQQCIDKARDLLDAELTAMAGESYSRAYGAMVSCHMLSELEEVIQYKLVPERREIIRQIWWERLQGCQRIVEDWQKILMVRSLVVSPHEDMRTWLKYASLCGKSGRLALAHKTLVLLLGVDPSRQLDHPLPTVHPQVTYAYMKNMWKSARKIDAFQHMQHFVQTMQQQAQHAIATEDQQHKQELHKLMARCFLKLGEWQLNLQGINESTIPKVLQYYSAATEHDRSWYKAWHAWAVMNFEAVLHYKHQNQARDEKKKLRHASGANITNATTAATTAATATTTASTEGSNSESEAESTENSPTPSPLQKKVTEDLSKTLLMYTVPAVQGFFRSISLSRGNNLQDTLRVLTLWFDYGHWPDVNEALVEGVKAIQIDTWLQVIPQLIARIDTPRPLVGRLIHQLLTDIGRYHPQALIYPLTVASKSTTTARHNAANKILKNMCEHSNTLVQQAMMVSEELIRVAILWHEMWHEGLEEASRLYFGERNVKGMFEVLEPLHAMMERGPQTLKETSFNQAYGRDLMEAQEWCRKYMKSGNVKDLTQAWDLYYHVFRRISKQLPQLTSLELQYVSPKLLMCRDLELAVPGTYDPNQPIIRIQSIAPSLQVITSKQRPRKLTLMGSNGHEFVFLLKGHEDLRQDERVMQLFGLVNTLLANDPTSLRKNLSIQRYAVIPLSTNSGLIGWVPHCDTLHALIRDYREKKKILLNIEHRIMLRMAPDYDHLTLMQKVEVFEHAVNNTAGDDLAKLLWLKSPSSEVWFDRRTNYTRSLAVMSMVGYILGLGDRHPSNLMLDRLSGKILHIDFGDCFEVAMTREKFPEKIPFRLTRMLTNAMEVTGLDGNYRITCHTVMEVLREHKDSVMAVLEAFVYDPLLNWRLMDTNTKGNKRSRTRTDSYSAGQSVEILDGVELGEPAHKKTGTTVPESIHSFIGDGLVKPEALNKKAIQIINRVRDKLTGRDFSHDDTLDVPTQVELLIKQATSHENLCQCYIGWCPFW

IC50 (FRAP1/mTOR) [nM]	EC50 (H4 mCherry-GFP-LC3 cells) [nM]	IC50 [1] [nM]	IC50 (PI3Kα) [nM]	SMILES
399	3190	1510	400	COc1cc(CO)cc(-c2nc3c(N4CCOC[C@@H]4C)nc(N4CCOC[C@@H]4C)nc3[nH]2)c1 [Example 17, {3-[2,6-Bis-((S)-3-methyl-morpholin-4-yl)-9H-purin-8-yl]-5-methoxy-phenyl}-methanol]
46	2500	70	5050	C[C@@H]1COCCN1c1nc(N2CCOC[C@@H]2C)c2nc(-c3cccc4[nH]ccc34)[nH]c2n1 [Example 18, 8-(1H-Indol-4-yl)-2-((R)-3-methyl-morpholin-4-yl)-6-((S)-3-methyl-morpholin-4-yl)-9H-purine]
134	2000	300	170	C[C@@H]1COCCN1c1nc(N2CCOC[C@H]2C)c2nc(-c3cc(CO)ccc3F)[nH]c2n1 [Example 19, {3-[2,6-Bis-((R)-3-methyl-morpholin-4-yl)-9H-purin-8-yl]-4-fluoro-phenyl}-methanol]
6	452	90	6050	C[C@@H]1COCCN1c1nc(N2CCOCC2)nc2[nH]c(-c3cccc4[nH]ccc34)nc12 [Example 20, 8-(1H-Indol-4-yl)-6-((R)-3-methyl-morpholin-4-yl)-2-morpholin-4-yl-9H-purine]
237	498	831	> 9100	C[C@@H]1COCCN1c1nc(N2CCOCC2)nc2[nH]c(-c3ccc4cc[nH]c4c3)nc12 [Example 21, 8-(1H-Indol-6-yl)-6-((R)-3-methyl-morpholin-4-yl)-2-morpholin-4-yl-9H-purine]
5	761	113	5860	C[C@H]1COCCN1c1nc(N2CCOC[C@@H]2C)c2nc(-c3cccc4[nH]ccc34)[nH]c2n1 [Example 22, 8-(1H-Indol-4-yl)-2,6-bis-((S)-3-methyl-morpholin-4-yl)-9H-purine]
14	1610	138	5510	C[C@H]1COCCN1c1nc(N2CCOCC2)nc2[nH]c(-c3cccc4[nH]ccc34)nc12 [Example 23, 8-(1H-Indol-4-yl)-6-((S)-3-methyl-morpholin-4-yl)-2-morpholin-4-yl-9H-purine]
172	> 700	452	2070	COC1CCN(c2nc(N3CCOCC3)c3nc(-c4cccc5[nH]ccc45)[nH]c3n2)CC1 [Example 25, 8-(1H-Indol-4-yl)-2-(4-methoxy-piperidin-1-yl)-6-morpholin-4-yl-9H-purine]
8	184	81	570	c1cc(-c2nc3c(N4CCOCC4)nc(N4CCOCC4)nc3[nH]2)c2cc[nH]c2c1 [Example 26, 8-(1H-Indol-4-yl)-2,6-di-morpholin-4-yl-9H-purine]
340	5930	7190	40	c1cc(-c2nc3c(N4CCOCC4)nc(N4CCOCC4)nc3[nH]2)c2cn[nH]c2c1 [Example 27, 8-(1H-Indazol-4-yl)-2,6-di-morpholin-4-yl-9H-purine]
372	> 200	458	9050	c1cc2ccc(-c3nc4c(N5CCOCC5)nc(N5CCOCC5)nc4[nH]3)cc2[nH]1 [Example 28, 8-(1H-Indol-6-yl)-2,6-di-morpholin-4-yl-9H-purine]
1210	> 5000	2080	3860	Nc1cccc(-c2nc3c(N4CCOCC4)nc(N4CCOCC4)nc3[nH]2)c1 [Example 29, 3-(2,6-Di-morpholin-4-yl-9H-purin-8-yl)-phenylamine]
1450	> 2000	1520	3010	CC(=O)Nc1cccc(-c2nc3c(N4CCOCC4)nc(N4CCOCC4)nc3[nH]2)c1 [Example 30, N-[3-(2,6-Di-morpholin-4-yl-9H-purin-8-yl)-phenyl]-acetamide]

— patent publication US8987257B2 (Novartis AG, priority 2011, dated 2015)
